Results from patent publication US20240208945A1, “6-CARBAMATE SUBSTITUTED HETEROARYL RING DERIVATIVES” (MEDSHINE DISCOVERY INC., priority 2021, published 2024).
Structures can show the parent of a compound that is named as a salt.

Key:
[1] = biological target: binding of KRAS(G12C) to SOS1 (Homo sapiens (Human), UniProt Q07889); assay: KRAS(G12C) and SOS1 binding assay (HTRF); conditions: 25° C., 60 minutes
Source text: The small molecular compound binds to the catalytic site of SOS1, thus inhibiting the binding of SOS1 to KRAS (G12C). When the binding of fluorescently labeled SOS1 protein to fluorescently labeled KRAS (G12C) protein is inhibited, the emitted fluorescence changes. The ability of small molecules to prevent the binding of SOS1 to KRAS (G12C) can be tested by detecting changes in fluorescence. A homogeneous time-resolved fluorescence (HTRF) binding assay was used to detect the ability of the compounds of the present disclosure to inhibit the binding of SOS1 to KRAS (G12C).
KRAS (G12C) protein was expressed and purified by Wuhan AtaGenix Biotechnology Co., Ltd., SOS1 exchange domin (564-1049) protein (Human recombinant) was purchased from Cytoskeleton, Mab Anti 6HIS-XL665 and Mab Anti GST-Eu cryptate were purchased from Cisbio. Multimode microplate reader Nivo5 was purchased from PerkinElmer.
1× buffer preparation (ready-to-use): Hepes: 5 mM; NaCl: 150 mM; EDTA: 10 mM; Igepal: 0.0025%; KF: 100 mM; DTT: 1 mM; BSA: […];
The test compounds were 5-fold diluted with DMSO using a multi-channel pipette to the 8th concentration, i.e., diluted from 1 mM to 0.064 μM.
The test compound was diluted by gradient with 1× buffer to a working solution with 2% DMSO. 5 μL/well of the working solution was added to corresponding wells, and the corresponding concentration gradient was 20 μM to […]. Duplicate experiment was set. The working solution was centrifuged at 1000 rpm for 1 minute.
A mixed working solution of KRAS(G12C) (200 nM) and Mab Anti GST-Eu cryptate (1 ng/μL) was prepared with 1× buffer, and the mixed working solution was incubated at 25° C. for 5 minutes, and 2.5 μL/well of the mixed working solution was added to the corresponding wells.
A mixed working solution of SOS1 (80 nM) and Mab Anti 6HIS-XL665 ([…]) was prepared with 1× buffer, and 2.5 μL/well of the mixed working solution was added to the corresponding wells. 2.5 μL of Mab Anti 6HIS-XL665 ([…]) diluent was added to blank wells. At this time, the final concentration gradient of the compound was diluted from 10 μM to 0.64 nM, KRAS(G12C) ([…]), MAb Anti GST-Eu cryptate (0.25 ng/μL), SOS1 (20 nM), Mab Anti 6HIS-XL665 (2 g/μL), the reaction system was placed at 25° C. for 60 minutes. After the reaction was completed, the multimode microplate reader was used to read HTRF.
Using the equation (Sample−Min)/(Max−Min)×100% to convert the raw data into inhibition rate, the IC50 value might be obtained by curve fitting with four parameters (obtained by “log (inhibitor) vs. response—Variable slope” mode in GraphPad Prism).

p-ERK in DLD-1 cells = assay: p-ERK inhibitory activity test in DLD-1 cells (HTRF Phospho-ERK1/2 kit); format: cell-based; conditions: Homo sapiens, 1 hour incubation
Experimental: DLD-1 cells were purchased from Nanjing Cobioer; 1640 medium was purchased from Biological Industries; fetal bovine serum was purchased from Biosera; Advanced Phospho-ERK1/2 (THR202/TYR204) KIT was purchased from Cisbio.
DLD-1 cells were seeded in a transparent 96-well cell culture plate, with 80 μL of cell suspension per well and 8000 DLD-1 cells per well. The cell plate was incubated in a carbon dioxide incubator at 37° C. overnight; • the test compound was diluted to 2 mM with 100% DMSO as the first concentration, and then 5-fold diluted to the 8th concentration with a pipette, that is, diluted from 2 mM to 0.026 μM. 2 μL of compound was added to 78 μL of cell starvation medium. After mixing well, 20 μL of compound solution was taken and added to the corresponding cell plate wells, and the cell plate was put back to the carbon dioxide incubator to continue to incubate for 1 hour; at this time, the concentration of the compound was from 10 μM to 0.128 nM, and the concentration of DMSO was 0.5%; • after the incubation was completed, the cell supernatant was discarded, and 50 μL of cell lysate was added to each well, and incubated at room temperature for 30 minutes with shaking; • Phospho-ERK1/2 Eu Cryptate antibody and Phospho-ERK1/2 d2 antibody were 20-fold diluted using Detection buffer; • 16 μL of cell lysate supernatant per well was put into a new 384 white microplate, then 2 μL of Phospho-ERK1/2 Eu Cryptate antibody diluent and 2 μL of Phospho-ERK1/2 d2 antibody diluent were added thereto and incubated at room temperature for 4 hours; • after the incubation was completed, a multimode microplate reader was used to read HTRF excitation: 320 nm, emission: 615 nm, 665 nm.
Using the equation (Sample−Min)/(Max−Min)*100% to convert the raw data into inhibition rate, the IC50 value might be obtained by curve fitting with four parameters (obtained by “log (inhibitor) vs. response—Variable slope” mode in GraphPad Prism). • Max well: Positive control well reading is 1× lysate • Min well: Negative control well reading is 0.5% DMSO cell well cell lysate

[2] = Pharmacokinetic evaluation in Balb/c mice (IV and oral); format: in vivo; conditions: male, mouse, plasma; for Cmax: IV 10 mg/kg and oral 50 mg/kg study, read-out: Peak concentration Cmax; for bioavailability / clearance / half-life / Vd: IV 10 mg/kg; for bioavailability / AUC(0-t): PO 50 mg/kg; for bioavailability: read-out: Bioavailability F; for clearance: read-out: Clearance rate CL; for half-life: read-out: Half life T1/2 (IV) (converted); for Vd: read-out: Volume of distribution at steady state Vdss; for AUC(0-t): read-out: Area under drug-time curve AUC0-last PO
Experimental: Balb/c mice (male, Beijing Vital River Laboratory Animal Technology Co., Ltd.)
The pharmacokinetic characteristics of the compound in rodents after intravenous injection and oral administration were tested according to the standard protocol. In the experiment, the candidate compound was formulated into clear solutions, and a single intravenous injection and oral administration were given to mice. The vehicle for intravenous injection and oral administration was a mixed vehicle composed of 5% dimethyl sulfoxide, 5% solutol, and 90% water. In this project, four male Balb/c mice were used, and two mice were administered intravenously at a dose of 10 mg/kg. Plasma samples were collected at 0.083, 0.25, 0.5, 1, 2, 4, 8, and 24 hours after administration. The other two mice were administered orally by gavage at a dose of 50 mg/kg. Plasma samples were collected at 0.25, 0.5, 1, 2, 4, 6, 8, 12, and 24 hours after administration. Blood samples were placed on ice after collection and centrifuged to separate plasma within 1 hour (centrifugation conditions: 6000 g, 3 minutes, 2 to 8° C.). Plasma samples were stored in a −80° C. refrigerator before analysis. The plasma concentration was quantitatively analyzed by LC-MS/MS analysis method, and the pharmacokinetic parameters were calculated, such as peak concentration (Cmax), clearance rate (CL), half-life (T1/2), volume of distribution at steady state (Vdss), area under drug-time curve (AUC0-last), bioavailability (F).

Chain of binding of KRAS(G12C) to SOS1 (Q07889 564-1049, stated change not applied): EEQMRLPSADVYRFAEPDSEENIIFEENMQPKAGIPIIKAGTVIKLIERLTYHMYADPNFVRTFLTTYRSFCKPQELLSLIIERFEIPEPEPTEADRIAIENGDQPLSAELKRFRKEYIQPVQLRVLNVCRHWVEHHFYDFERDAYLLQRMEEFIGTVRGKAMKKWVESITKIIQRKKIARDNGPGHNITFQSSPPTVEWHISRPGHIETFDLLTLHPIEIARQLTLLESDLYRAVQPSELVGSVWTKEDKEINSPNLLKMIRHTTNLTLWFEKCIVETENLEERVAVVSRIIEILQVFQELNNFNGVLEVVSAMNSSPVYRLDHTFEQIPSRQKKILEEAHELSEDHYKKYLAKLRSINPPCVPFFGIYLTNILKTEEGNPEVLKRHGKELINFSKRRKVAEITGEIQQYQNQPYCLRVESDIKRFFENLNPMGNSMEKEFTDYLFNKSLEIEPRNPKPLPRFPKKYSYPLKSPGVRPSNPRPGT

Compound	IC50 [1] [µM]	IC50 (p-ERK in DLD-1 cells) [µM]	also measured
COc1cc2nc(C)nc(N[C@H](C)c3cccc(C(F)(F)CO)c3)c2cc1OC(=O)N1CCN(C)CC1C (stereo partly drawn) [Hydrochloride of compound 16]	0.0596	0.222	
COc1cc2nc(C)nc(N[C@H](C)c3cc(N)cc(C(F)(F)F)c3)c2cc1OC(=O)N1CCNCC1 [Hydrochloride of compound 6]	0.0876		
COc1cc2nc(C)nc(N[C@H](C)c3cccc(C(F)F)c3F)c2cc1OC(=O)N1CCN(C2COC2)CC12CC2 [Compound 26]	0.0659	0.283	
COc1cc2nc(C)nc(N[C@H](C)c3cc(N)cc(C(F)(F)F)c3)c2cc1OC(=O)N1CCN(C)CC1 [Compound 2]	0.11	0.122	
COc1cc2nc(C)nc(N[C@H](C)c3cccc(C(F)(F)C(C)(C)O)c3F)c2cc1OC(=O)N1CCN(C2COC2)CC12CC2 [Compound 24]	0.0479		
COc1cc2nc(C)nc(N[C@H](C)c3cc(N)cc(C(F)(F)F)c3)c2cc1OC(=O)N1CCC2(CCOC2)CC1 [Compound 7]	0.0928		
COc1cc2nc(C)nc(N[C@H](C)c3cccc(C(F)(F)CO)c3F)c2cc1OC(=O)N1CCN(C)CC1C (stereo partly drawn) [Hydrochloride of compound 18]	0.0234	0.243	
COc1cc2nc(C)nc(N[C@H](C)c3cccc(C(F)(F)C(C)(C)O)c3F)c2cc1OC(=O)N1CCN(C)C[C@H]1C [Hydrochloride of compound 29]	0.0147	0.135	Cmax [2]: 10.9 µM; bioavailability [2]: 91.2%; clearance [2]: 18.7 mL/min/kg; half-life [2]: 3.46 h; Vd [2]: 4.15 L/kg; AUC(0-t) [2]: 74.6 µM·h
COc1cc2nc(C)nc(N[C@H](C)c3cccc(C(F)(F)C4CCCO4)c3F)c2cc1OC(=O)N1CCN(C)CC1C (stereo partly drawn) [Hydrochloride of compound 15]	0.149		
COc1cc2nc(C)nc(N[C@H](C)c3cccc(C(F)(F)C(C)(C)O)c3F)c2cc1OC(=O)N1CCN(C)C[C@@H]1C [Hydrochloride of compound 28]	0.0145	0.0915	Cmax [2]: 4.59 µM; bioavailability [2]: 98.8%; clearance [2]: 36.7 mL/min/kg; half-life [2]: 6.01 h; Vd [2]: 11.5 L/kg; AUC(0-t) [2]: 37.5 µM·h
COc1cc2nc(C)nc(N[C@H](C)c3cccc(C(F)F)c3F)c2cc1OC(=O)N1CCN(C)CC1C (stereo partly drawn) [Hydrochloride of compound 19]	0.105		
CCN1CCN(C(=O)Oc2cc3c(N[C@H](C)c4cc(N)cc(C(F)(F)F)c4)nc(C)nc3cc2OC)CC1 [Hydrochloride of compound 5]	0.0773	0.219	
COc1cc2nc(C)nc(N[C@H](C)c3cccc(C(F)F)c3F)c2cc1OC(=O)N1CCNCC12CC2 [Compound 25]	0.0861		
COc1cc2nc(C)nc(N[C@H](C)c3cc(N)cc(C(F)(F)F)c3)c2cc1OC(=O)N1CCN2CCCC2C1 (stereo partly drawn) [Compound 10]		0.0862	
COc1cc2nc(C)nc(N[C@H](C)c3cc(N)cc(C(F)(F)F)c3)c2cc1OC(=O)N1CCC2(CC1)CO[C@H](C)[C@@H]2N [Compound 11]	0.0786		
COc1cc2nc(C)nc(N[C@H](C)c3cc(N)cc(C(F)(F)F)c3)c2cc1OC(=O)N1CCN(C)CC1C (stereo partly drawn) [Hydrochloride of compound 4]	0.0711	0.113	
COc1cc2nc(C)nc(N[C@H](C)c3cc(N)cc(C(F)(F)F)c3F)c2cc1OC(=O)N1CCN(C)CC1C (stereo partly drawn) [Compound 27]	0.0406	0.112	
COc1cc2nc(C)nc(N[C@H](C)c3cc(N)cc(C(F)(F)F)c3)c2cc1OC(=O)N1CCCN(C)CC1C (stereo partly drawn) [Compound 13]	0.0704	0.282	
COc1cc2nc(C)nc(N[C@H](C)c3cc(N)cc(C(F)(F)F)c3)c2cc1OC(=O)N1CCN(C2COC2)CC1 [Compound 9]	0.0836		
COc1cc2nc(C)nc(N[C@H](C)c3cc(N)cc(C(F)(F)F)c3)c2cc1OC(=O)N1CCC(N(C)C)CC1 [Hydrochloride of compound 8]	0.0737		
